Results as given in US12146010B2, “Amine co-initiator mixture” (Arkema UK Limited, priority 2019, dated 2024).

Columns and labels:
[1] = Solubility of amines and amine mixtures in acrylate resins; format: physicochemical; conditions: for Solubility (% w/w at ~15-20° C.): stays in solution at least 7 days, above 10% w/w not tested; for Dissolution of the solid material: at 1% w/w in the acrylate resins
Description: This example illustrates the improved solubility of the co-initiator mixtures compared to single component amine co-initiator compositions, illustrating the benefit of providing a composition comprising both the compound of Formula I and the ancillary amine. For comparison, the solubility of amine mixtures as provided by this invention, of which mixtures AM1-AM6 are representative examples, were tested alongside single component formulations comprising only the amines AC1-AC5.
Mixtures of amine synergists were prepared using one of the methods described above.
The solid amines AC1-AC5 or mixtures of amines AM1-AM6 were added portion-wise in 1% w/w portions to stirred 5.0 g samples of the following acrylate resins and the samples were stirred at 15-20° C. until all solid material was completely dissolved: HDDA (1,6-hexanediol diacrylate), TMPTA (trimethylolpropane triacrylate), TPGDA (tripropyleneglycol diacrylate). At the concentrations given below (Table 2a-2k) all solids remained in solution for at least 7 days at 15-20° C. unless otherwise stated. In cases where the solids began to crystallise out of solution within this time the mixtures were warmed to approx. 40° C. to re-dissolve the solids and the concentrations were adjusted to the given values by the addition of extra resin, whereupon the solids remained dissolved at the adjusted concentration for at least 7 days at 15-20° C. Solubility above 10% w/w was not tested in any case. The weight % is based on the total weight of the mixture.

[2] = UV curing experiments: passes under Hg lamp to tack-free / thumb-twist cure; conditions: approx. 16 m/min belt speed, 0.20 g amine in 4.0 g resin with 1% 2-ITX and 4% BP
Description: The following example illustrates the high curing speed of co-initiators which contain the compound of Formula I and the ancillary amine. For comparison, the commercially available amine co-initiators SpeedCure EDB (Lambson Limited) and diffusion-hindered polymeric amine SpeedCure 7040 (Lambson Limited) were also tested. Additionally, the pure amines AC1-AC5 were tested alongside the mixtures provided by this invention, of which the mixtures AM1-AM6 are representative examples.
The amine co-initiators or co-initiator mixtures (0.20 g) were added to a resin mixture (4.0 g) containing 1% w/w SpeedCure 2-ITX (Lambson Limited) and 4% w/w SpeedCure BP (Lambson Limited) in 70:30 ethoxylated bisphenol A dimethacrylate (EO/phenol 10):trimethylolpropane triacrylate with stirring at 15-20° C. until all solid material had dissolved.
Formulations were cured at 6 and 24 μm film thicknesses under Hg lamp using a Dymax curing instrument with approx. 16 m/min belt speed. The number of passes under the lamp required to give a ‘tack-free’ (TF) coating (as determined when the surface of the coating no longer feels sticky when lightly touched) or full cure as determined by the ‘thumb-twist’ test (TT) (i.e. until no visible mark is made when a thumb is pressed down firmly onto the coating with a twisting motion) are given in Table 3.

[3] = in HDDA (1,6-hexanediol diacrylate)
[4] = in TMPTA (trimethylolpropane triacrylate)
[5] = in TPGDA (tripropyleneglycol diacrylate)

SMILES | Solubility (% w/w at ~15-20° C.) [1, 3] | Solubility (% w/w at ~15-20° C.) [1, 4] | Solubility (% w/w at ~15-20° C.) [1, 5] | No. of Passes Required, TF (tack-free) ([2]; 6 μm film) | No. of Passes Required, TT (thumb-twist, full cure) ([2]; 6 μm film) | No. of Passes Required, TF (tack-free) ([2]; 24 μm film) | No. of Passes Required, TT (thumb-twist, full cure) ([2]; 24 μm film) | Dissolution of the solid material [1] | Time until solid crystallised out of solution ([1]; initially dissolved at 2% w/w, all three resins)
CCC(CO)(COCC(CC)(COC(=O)c1ccc(N(C)C)cc1)COC(=O)c1ccc(N(C)C)cc1)COC(=O)c1ccc(N(C)C)cc1 (stereo not drawn) [AC2] | 10 % w/w | 10 % w/w | 10 % w/w | 1 passes | 6 passes | 1 passes | 2 passes | – | –
CN(C)c1ccc(C(=O)OCC(COC(=O)c2ccc(N(C)C)cc2)(COC(=O)c2ccc(N(C)C)cc2)COC(=O)c2ccc(N(C)C)cc2)cc1 [AC4] | <1 % w/w | <1 % w/w | <1 % w/w | – | – | – | – | would not dissolve | –
CCC(COCC(CC)(COC(=O)c1ccc(N(C)C)cc1)COC(=O)c1ccc(N(C)C)cc1)(COC(=O)c1ccc(N(C)C)cc1)COC(=O)c1ccc(N(C)C)cc1 [AC1] | 5 % w/w | 4 % w/w | 3 % w/w | 1 passes | 5 passes | 1 passes | 2 passes | – | –
CN(C)c1ccc(C(=O)OCC(COC(=O)c2ccc(N(C)C)cc2)OC(=O)c2ccc(N(C)C)cc2)cc1 [AC5] | <1 % w/w | <1 % w/w | <1 % w/w | – | – | – | – | would not dissolve | –
CCC(COC(=O)c1ccc(N(C)C)cc1)(COC(=O)c1ccc(N(C)C)cc1)COC(=O)c1ccc(N(C)C)cc1 [AC3] | <2 % w/w | <2 % w/w | <2 % w/w | – | – | – | – | – | ≤ 24 h
CCOC(=O)c1ccc(N(C)C)cc1 [SpeedCure EDB, ethyl 4-(dimethylamino)benzoate, reference compound] | – | – | – | 1 passes | 6 passes | 1 passes | 2 passes | – | –
